How the values were obtained:
[1] = target: T1, E1 and His-E2 Ubch10 (UBC10) (Homo sapiens, UniProt P22314); test: ATP competitive assay, 200 μM ATP (high ATP); assay type: biochemical; conditions: conclusion from UBC10 inhibition at 1 μM versus 200 μM ATP
T1 construct: host or cells: E. coli (His-Ubch10); Sf9 insect cells (E1)
T1 sequence (P22314 1-1058): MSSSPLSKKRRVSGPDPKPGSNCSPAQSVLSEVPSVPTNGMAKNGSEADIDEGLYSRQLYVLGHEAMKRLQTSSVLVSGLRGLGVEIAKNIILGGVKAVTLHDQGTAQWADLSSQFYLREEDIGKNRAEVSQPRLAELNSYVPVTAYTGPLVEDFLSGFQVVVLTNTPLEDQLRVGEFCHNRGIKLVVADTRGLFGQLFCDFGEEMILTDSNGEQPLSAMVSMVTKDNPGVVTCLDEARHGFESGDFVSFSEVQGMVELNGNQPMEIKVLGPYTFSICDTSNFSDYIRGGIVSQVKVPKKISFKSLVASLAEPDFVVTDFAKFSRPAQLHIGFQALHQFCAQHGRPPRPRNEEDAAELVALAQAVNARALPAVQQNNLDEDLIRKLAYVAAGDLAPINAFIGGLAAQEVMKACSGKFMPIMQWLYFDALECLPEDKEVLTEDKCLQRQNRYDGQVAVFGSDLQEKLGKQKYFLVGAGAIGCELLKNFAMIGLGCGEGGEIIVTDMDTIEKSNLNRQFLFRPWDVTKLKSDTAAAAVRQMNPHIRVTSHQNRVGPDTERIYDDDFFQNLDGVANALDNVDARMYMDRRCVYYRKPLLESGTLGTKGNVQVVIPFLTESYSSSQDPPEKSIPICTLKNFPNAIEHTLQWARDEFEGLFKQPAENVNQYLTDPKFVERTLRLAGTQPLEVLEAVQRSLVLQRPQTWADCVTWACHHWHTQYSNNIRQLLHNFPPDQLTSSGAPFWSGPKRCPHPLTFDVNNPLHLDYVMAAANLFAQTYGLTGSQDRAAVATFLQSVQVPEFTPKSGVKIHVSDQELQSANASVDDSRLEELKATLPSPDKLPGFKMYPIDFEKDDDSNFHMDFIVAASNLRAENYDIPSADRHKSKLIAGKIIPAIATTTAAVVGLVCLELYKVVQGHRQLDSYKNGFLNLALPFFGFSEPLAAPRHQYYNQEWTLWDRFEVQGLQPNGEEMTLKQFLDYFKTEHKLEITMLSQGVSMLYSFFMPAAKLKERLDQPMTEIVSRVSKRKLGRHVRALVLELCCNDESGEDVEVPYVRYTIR
Procedure: The attachment of a ubiquitin moiety to the E2 conjugating agent was assayed using Flag-ubiquitin that was purified from E. coli, E2 Ubch10 that was purified as a His-Ubch10 from E. coli, and E1 that was purified from Sf9 insect cells (Affiniti Research Products, Exeter, U.K.). The wells of a Nickel-substrate 96-well plate (Pierce Chemical) were blocked with 100 μl of 1% casein/phosphate buffered saline (PBS) for 1 hour at room temperature. The blocked Nickel-substrate plate was then washed three times with 200 μl of PBST (0.1% Tween-20 in PBS). […] The final reaction solution volume was fixed to 80 μl with Millipore-filtered water. To this was added the following: a ubiquitin agent inhibitor in 10 μl of DMSO, 10 μl of E1 and His-E2 Ubch10 in 20 mM Tris buffer, pH 7.5, and 5% glycerol so that there was 10 ng/well of E1 and 20 ng/well of His-E2 Ubch10. […]
After 1 hour, the wells were washed three times with 200 μl of PBST and the amount of E2-ubiquitin complex was measured. […] The luminescence of each well was then measured using a […] to calculate the amount of E2-ubiquitin complex. […]
The table below illustrates the ATP competitive inhibition properties of the pharmaceutical compositions of the invention comprising the compounds listed in the table using the ATP competitive assay described above. Inhibition was measured using IC50 values.

E1 and His-E2 Ubch10 = target: T2, E1 and His-E2 Ubch10 (Homo sapiens, UniProt P22314); test: E1 to E2 transfer assay, His-E2 Ubch10, 1.0 μM ATP (low ATP); assay type: biochemical; conditions: Table 5, ATP inhibition properties; inhibition measured using IC50 values
T2 construct: host or cells: E. coli (His-Ubch10); Sf9 insect cells (E1)
T2 sequence (P22314 1-1058): T1 sequence (P22314 1-1058)
How it was run: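 His-Ubch10 (20 ng/well), E1 (10 ng/well) and Flag-ubiquitin (100 ng) reacted 1 h at room temperature on nickel plates in 62.5 mM Tris pH 7.5, 0.75 mM DTT, 1.0 μM ATP with inhibitor. E2-ubiquitin complex detected by anti-Flag/HRP luminescence; IC50 determined.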

Results [1] | SMILES | UBC10 (E1 and His-E2 Ubch10)
ATP competitve | COc1ccc2nc(NC(=O)c3ccc(C)cc3)sc2c1 [Compound 3, N-(6-methoxy-1,3-benzothiazoi-2-yl)-4-methylbenzamide] | 
ATP competitve | COc1ccc2sc(NC(=O)c3ccc4c(c3)OCCO4)nc2c1 [Compound 14, N-(5-methoxy-1,3-benzothiazol-2-yl)-2,3-dihydro-1,4-benzodioxine-6-carboxamide] | 
 | O=C(Nc1nc2ccccc2s1)c1ccccc1F [Compound 164, N-(benzo[d]thiazol-2-yl)-2-fluorobenzamide] | −− (−− indicates marginal or no inhibition detected with this assay)
 | O=C(Nc1nc2ccccc2s1)c1ccccc1 [Compound 168, N-(benzo[d]thiazol-2-yl)benzamide] | −− (−− indicates marginal or no inhibition detected with this assay)
 | O=C(Nc1nc2ccccc2s1)c1ccccc1[N+](=O)[O-] [Compound 169, N-(benzo[d]thiazol-2-yl)-2-nitrobenzamide] | −− (−− indicates marginal or no inhibition detected with this assay)
 | CCCc1ccc(C(=O)Nc2nc3ccccc3s2)cc1 [Compound 170, N-(benzo[d]thiazol-2-yl)-4-propylbenzamide] | −− (−− indicates marginal or no inhibition detected with this assay)
 | O=C(Nc1nc2ccccc2s1)c1ccc(Br)cc1 [Compound 172, N-(benzo[d]thiazol-2-yl)-4-bromobenzamide] | −− (−− indicates marginal or no inhibition detected with this assay)
 | O=C(Nc1nc2ccccc2s1)c1cccc(F)c1 [Compound 174, N-(benzo[d]thiazol-2-yl)-3-fluorobenzamide] | −− (−− indicates marginal or no inhibition detected with this assay)
 | CC(C)(C)c1ccc(C(=O)Nc2nc3ccccc3s2)cc1 [Compound 176, N-(benzo[d]thiazol-2-yl)-4-tert-butylbenzamide] | −− (−− indicates marginal or no inhibition detected with this assay)
 | O=C(O)c1ccc2c(c1)C(=O)N(c1nc3ccccc3s1)C2=O [Compound 181, 2-(benzo[d]thiazol-2-yl)-1,3-dioxosioindoline-5-carboxylic acid] | −− (−− indicates marginal or no inhibition detected with this assay)
 | O=C(Nc1nc2ccccc2s1)c1cccc(Cl)c1 [Compound 186, N-(benzo[d]thiazol-2-yl)-3-chlorobenzamide] | −− (−− indicates marginal or no inhibition detected with this assay)
 | COc1cccc(C(=O)Nc2nc3ccccc3s2)c1 [Compound 189, N-(benzo[d]thiazol-2-yl)-3-methoxybenzamide] | −− (−− indicates marginal or no inhibition detected with this assay)
 | O=C(Nc1nc2ccccc2s1)c1ccccc1Cl [Compound 194, N-(benzo[d]thiazol-2-yl)-2-chlorobenzamide] | −− (−− indicates marginal or no inhibition detected with this assay)
 | O=C(Nc1nc2ccccc2s1)c1cccc(I)c1 [Compound 195, N-(benzo[d]thiazol-2-yl)-3-iodobenzamide] | ++ (++ indicates inhibition at 50 μM or or less)
 | O=C(Nc1nc2ccccc2s1)C1CCCCC1 [Compound 205, N-(benzo[d]thiazol-2-yl)cyclohexanecarboxamide] | −− (−− indicates marginal or no inhibition detected with this assay)
 | O=C(Nc1nc2ccccc2s1)c1ccc(Br)o1 [Compound 208, N-(benzo[b]thiazol-2-yl)-5-bromofuran-2-carboxamide] | −− (−− indicates marginal or no inhibition detected with this assay)
 | CC(C)c1ccc(C(=O)Nc2nc3ccccc3s2)cc1 [Compound 222, N-(benzo[d]thiazol-2-yl)-4-isopropylbenzamide] | −− (−− indicates marginal or no inhibition detected with this assay)
 | CN(C)c1ccccc1C(=O)Nc1nc2ccccc2s1 [Compound 223, N-(benzo[d]thiazol-2-yl)-2-(dimethylamino)benzamide] | −− (−− indicates marginal or no inhibition detected with this assay)
 | O=C(Nc1nc2ccccc2s1)[C@H]1CCN1 [Compound 224, (R)-N-(benzo[d]thiazol-2-yl)azetidine-2-carboxamide] | −− (−− indicates marginal or no inhibition detected with this assay)
 | O=C(Nc1nc2ccccc2s1)C1CCNCC1 [Compound 225, N-(benzo[d]thiazol-2-yl)piperidine-4-carboxamide] | −− (−− indicates marginal or no inhibition detected with this assay)
